# Measured values reported in patent US20210379062A1, “The use of a H3R inverse agonist for the treatment of excessive daytime sleepiness associated with parkinson's disease (PD)” (Novartis AG, priority 2018, published 2021).
# Assay: First-in-human SAD/MAD study: safety, tolerability, night sleep duration, formulation effect
# Assay type: in vivo
# Experimental: An open-label, adaptive design study was performed in healthy volunteers to characterize regional brain H3 receptor occupancy following single dose of Compound (I) by using positron emission tomography (PET) with the radioligand [^11C]MK-8278 (Van Laere, K. J. et al, Journal of Nuclear Medicine, 2014, 55: 65-72). The primary objective of this study was to evaluate the plasma concentration of Compound (I) leading to 50% occupancy of H3 receptors in the brain (EC50). A total of 6 subjects were enrolled into the study and were scanned in three cohorts of two subjects each. Prior to dosing with Compound (I), each subject underwent a baseline PET scan to assess binding of [^11C]MK-8278 to H3R in the absence of Compound (I). Subjects subsequently received single oral doses of Compound (I) and then underwent two post-dose PET scans. Subjects of cohort 1 received a single oral dose of 300 mg of Compound (I), corresponding to the single dose maximum tolerated dose (MTD) determined from the Phase I study after single oral dose of Compound (I). These subjects underwent two post-dose PET scans, at 3 hours and 27 hours after dosing. The doses and scan timings for the subsequent cohorts were selected based on interim data analyses following the completion of the preceding cohort(s). Subjects of cohorts 2 and 3 received a single oral dose of 10 mg and 0.3 mg, respectively. Compound (I) was administered as capsules in cohorts 1 and 2, whereas cohort 3 received Compound (I) as an oral solution. […] The first post-dose PET scan for cohorts 2 and 3 was acquired at 3 hours and the second one at 27 hours and 8 hours after dosing, respectively.
# PK data (drug concentration over time) from Part 1 and Part 2 of the Phase I study were used in the development of the model: • 1) Part 1 is the Single Ascending Dose part; 8 different cohorts were used, with each cohort composed of 6 active subjects and 2 placebo subjects. The dose amounts used in the 8 cohorts were 0.3, 1, 3, 10, 30, 100, 300 and 800 mg. Dosing was performed at time equal to 0 hours. […]
structure (smiles),measurement,setting,value
"Cn1nc(N2CCC(OC(=O)N3CCN(C4CCC4)CC3)CC2)ccc1=O [Compound (I), 1-(1-methyl-6-oxo-1,6-dihydropyridazin-3-yl)piperidin-4-yl 4-cyclobutylpiperazine-1-carboxylate]",highest tolerated repeated dose,"healthy volunteer study, repeated dose",50 mg
same,"difference in PK, capsule vs oral solution","in vivo, po",no clinically relevant difference
same,single dose maximum tolerated dose (MTD),"single oral dose, Phase I study",300 mg
